Our source for the TGI values is PubChem BioAssay (NCI).

Some test systems named below: BT-549 breast; HCT-15 colon; HOP-62 NSCLC; NCI-H226 lung; OVCAR-5 ovarian; RXF 393 renal; SF-268 CNS; SF-539 CNS; SK-MEL-5 melanoma; UACC-257 melanoma.
Experiment in all cases: DTP human tumour cell line panel, 48 h

Molecules are shown by their SMILES.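 Results reflect a 48-hour exposure of cells in 96-well plates to compound at five concentrations. TGI denotes the concentration required for complete inhibition of growth.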

For orientation: TGI means the concentration giving total growth inhibition. Read a high TGI as less potent growth arrest. For `COc1cc(C2c3cc4c(cc3OC(N3CCCC3)C2C)OCO4)cc(OC)c1O` (stereo not given), the TGI in the experiment on BT-549 breast is 53.2 µM; with HCT-15 colon it was > 100 µM; in the experiment on HOP-62 NSCLC, 56.7 µM; in the experiment with NCI-H226 lung, 80.9 µM; in the experiment on OVCAR-5 ovarian, > 100 µM; in the experiment on RXF 393 renal, > 42.7 µM. For the same compound, the TGI in the experiment on SF-268 CNS is > 100 µM; in the experiment on SF-539 CNS, 41.2 µM; in the experiment on SK-MEL-5 melanoma it was 40.5 µM; in the experiment with UACC-257 melanoma, > 100 µM.
In the case of `CN(c1ccc(Cl)cc1)S(=O)(=O)c1cccc([N+](=O)[O-])c1`, the TGI with BT-549 breast, in the experiment on HCT-15 colon, with HOP-62 NSCLC, in the experiment with NCI-H226 lung, in the experiment on OVCAR-5 ovarian and in the experiment with RXF 393 renal was > 100 µM throughout. The TGI in the experiment with SF-268 CNS is > 100 µM; in the experiment with SF-539 CNS, > 100 µM; in the experiment on SK-MEL-5 melanoma it was 72.8 µM; in the experiment on UACC-257 melanoma, > 100 µM.
Turning to `NC(=O)C(N)Cc1ccc(O)cn1` (stereo not given), the TGI in the experiment on BT-549 breast, in the experiment with HCT-15 colon, in the experiment with HOP-62 NSCLC, in the experiment on NCI-H226 lung, with OVCAR-5 ovarian and in the experiment with RXF 393 renal was > 100 µM in each case. Also, the TGI in the experiment on SF-268 CNS, with SF-539 CNS, in the experiment on SK-MEL-5 melanoma and in the experiment with UACC-257 melanoma was > 100 µM each time.
With `CN(c1ccc(Cl)cc1)S(=O)(=O)c1ccc([N+](=O)[O-])cc1`, the TGI in the experiment on BT-549 breast, with HCT-15 colon, with HOP-62 NSCLC, in the experiment with NCI-H226 lung, in the experiment on OVCAR-5 ovarian and in the experiment on RXF 393 renal was > 100 µM each time. The total growth inhibition concentration (TGI) in the experiment with SF-268 CNS, in the experiment with SF-539 CNS, in the experiment on SK-MEL-5 melanoma and in the experiment with UACC-257 melanoma was > 100 µM each time.
Regarding `COc1ccc(/C=C(/C(=O)c2ccc(Cl)cc2)N2C=CC=CC2=C(C#N)C#N)cc1OC`, the TGI is 22.5 µM in the experiment on BT-549 breast; 6.19 µM with HCT-15 colon; 51.1 µM in the experiment on HOP-62 NSCLC; 38.4 µM in the experiment on NCI-H226 lung; 32.6 µM with OVCAR-5 ovarian; 4.75 µM in the experiment on RXF 393 renal. Also, the TGI with SF-268 CNS is 17.2 µM; in the experiment on SF-539 CNS, 22.3 µM; in the experiment on SK-MEL-5 melanoma, 22.9 µM; in the experiment on UACC-257 melanoma, 17.2 µM.
